This note sets out measurements from ChEMBL document CHEMBL3991601, “The target landscape of clinical kinase drugs” (Science, 2017).

Structures are written as SMILES. The source made the active and inactive calls. Rule as the data show it, for most assays here: actives have a measured Kd and inactives only a lower limit. Where only a bound is given, the exact number is not on record here.

Assay [1] has as its target Bone morphogenetic protein receptor type-1B (Homo sapiens, UniProt O00238).
Assay [2] deals with Dual specificity tyrosine-phosphorylation-regulated kinase 1A (Homo sapiens, UniProt Q13627).
The target in assay [3] is T1, Ephrin type-B receptor 3 (Homo sapiens, UniProt P54753).
T1 sequence (P54753 whole entry): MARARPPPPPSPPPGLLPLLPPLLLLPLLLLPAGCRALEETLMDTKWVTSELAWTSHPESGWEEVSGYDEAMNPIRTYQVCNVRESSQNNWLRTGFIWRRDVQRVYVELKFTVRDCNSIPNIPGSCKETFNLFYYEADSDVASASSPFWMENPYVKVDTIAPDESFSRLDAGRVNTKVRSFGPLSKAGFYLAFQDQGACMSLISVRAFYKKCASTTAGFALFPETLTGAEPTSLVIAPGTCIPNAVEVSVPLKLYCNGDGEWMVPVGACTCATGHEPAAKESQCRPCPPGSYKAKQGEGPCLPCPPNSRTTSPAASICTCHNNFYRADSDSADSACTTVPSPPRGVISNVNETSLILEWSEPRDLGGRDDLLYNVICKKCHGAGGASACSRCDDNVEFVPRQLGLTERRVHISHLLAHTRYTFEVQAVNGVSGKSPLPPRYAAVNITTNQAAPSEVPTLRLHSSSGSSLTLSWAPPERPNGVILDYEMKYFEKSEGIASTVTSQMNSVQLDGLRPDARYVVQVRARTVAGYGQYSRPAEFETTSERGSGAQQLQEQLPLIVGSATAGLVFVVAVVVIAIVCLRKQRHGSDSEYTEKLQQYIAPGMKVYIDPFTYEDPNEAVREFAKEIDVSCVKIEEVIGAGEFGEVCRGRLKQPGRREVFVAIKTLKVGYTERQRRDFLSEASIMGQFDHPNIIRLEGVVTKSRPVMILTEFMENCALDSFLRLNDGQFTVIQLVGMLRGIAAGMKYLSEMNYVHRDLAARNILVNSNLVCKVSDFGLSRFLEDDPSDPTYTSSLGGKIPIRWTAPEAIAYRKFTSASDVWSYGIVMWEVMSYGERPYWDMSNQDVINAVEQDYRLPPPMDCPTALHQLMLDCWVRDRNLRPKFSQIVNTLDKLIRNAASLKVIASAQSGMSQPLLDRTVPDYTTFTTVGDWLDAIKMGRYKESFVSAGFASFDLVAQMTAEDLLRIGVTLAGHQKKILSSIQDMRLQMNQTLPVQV

The target of assay [4] is Mitogen-activated protein kinase kinase kinase kinase 5 (Homo sapiens, UniProt Q9Y4K4).
Assay [5] deals with T2, Serine/threonine-protein kinase Nek1 (Homo sapiens, UniProt Q96PY6).
T2 sequence (Q96PY6 whole entry): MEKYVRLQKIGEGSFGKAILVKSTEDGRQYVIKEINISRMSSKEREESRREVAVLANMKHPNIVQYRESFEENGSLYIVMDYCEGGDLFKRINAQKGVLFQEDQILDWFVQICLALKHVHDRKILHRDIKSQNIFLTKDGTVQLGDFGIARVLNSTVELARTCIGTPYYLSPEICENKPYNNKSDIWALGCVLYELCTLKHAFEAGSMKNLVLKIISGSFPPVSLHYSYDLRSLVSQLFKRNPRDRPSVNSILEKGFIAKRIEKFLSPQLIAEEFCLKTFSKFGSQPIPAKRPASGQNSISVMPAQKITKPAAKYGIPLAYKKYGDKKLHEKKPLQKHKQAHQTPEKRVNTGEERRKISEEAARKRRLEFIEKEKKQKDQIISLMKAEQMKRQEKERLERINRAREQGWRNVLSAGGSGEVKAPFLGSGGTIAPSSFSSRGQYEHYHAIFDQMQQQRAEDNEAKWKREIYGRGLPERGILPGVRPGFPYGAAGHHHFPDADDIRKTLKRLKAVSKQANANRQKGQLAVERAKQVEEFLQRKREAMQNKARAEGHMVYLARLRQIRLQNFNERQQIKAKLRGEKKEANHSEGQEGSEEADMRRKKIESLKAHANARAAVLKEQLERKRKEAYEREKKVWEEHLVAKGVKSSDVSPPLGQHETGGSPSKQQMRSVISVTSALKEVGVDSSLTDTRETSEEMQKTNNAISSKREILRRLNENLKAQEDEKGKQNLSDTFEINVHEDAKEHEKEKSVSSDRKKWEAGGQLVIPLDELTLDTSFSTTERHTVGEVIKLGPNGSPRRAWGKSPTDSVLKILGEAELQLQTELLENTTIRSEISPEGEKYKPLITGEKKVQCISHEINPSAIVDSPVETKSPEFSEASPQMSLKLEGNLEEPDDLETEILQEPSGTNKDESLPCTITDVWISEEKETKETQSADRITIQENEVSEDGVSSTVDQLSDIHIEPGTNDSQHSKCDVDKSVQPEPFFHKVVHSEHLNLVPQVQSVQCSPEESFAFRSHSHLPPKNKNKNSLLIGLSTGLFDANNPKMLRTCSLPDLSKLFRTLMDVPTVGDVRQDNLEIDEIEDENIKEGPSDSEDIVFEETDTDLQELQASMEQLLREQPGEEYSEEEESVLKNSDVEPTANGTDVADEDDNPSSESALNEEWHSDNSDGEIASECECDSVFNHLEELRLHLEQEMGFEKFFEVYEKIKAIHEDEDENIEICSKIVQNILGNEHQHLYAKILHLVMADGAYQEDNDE

Assay [6] addresses T3, Non-receptor tyrosine-protein kinase TNK1 (Homo sapiens, UniProt Q13470).
T3 sequence (Q13470 whole entry): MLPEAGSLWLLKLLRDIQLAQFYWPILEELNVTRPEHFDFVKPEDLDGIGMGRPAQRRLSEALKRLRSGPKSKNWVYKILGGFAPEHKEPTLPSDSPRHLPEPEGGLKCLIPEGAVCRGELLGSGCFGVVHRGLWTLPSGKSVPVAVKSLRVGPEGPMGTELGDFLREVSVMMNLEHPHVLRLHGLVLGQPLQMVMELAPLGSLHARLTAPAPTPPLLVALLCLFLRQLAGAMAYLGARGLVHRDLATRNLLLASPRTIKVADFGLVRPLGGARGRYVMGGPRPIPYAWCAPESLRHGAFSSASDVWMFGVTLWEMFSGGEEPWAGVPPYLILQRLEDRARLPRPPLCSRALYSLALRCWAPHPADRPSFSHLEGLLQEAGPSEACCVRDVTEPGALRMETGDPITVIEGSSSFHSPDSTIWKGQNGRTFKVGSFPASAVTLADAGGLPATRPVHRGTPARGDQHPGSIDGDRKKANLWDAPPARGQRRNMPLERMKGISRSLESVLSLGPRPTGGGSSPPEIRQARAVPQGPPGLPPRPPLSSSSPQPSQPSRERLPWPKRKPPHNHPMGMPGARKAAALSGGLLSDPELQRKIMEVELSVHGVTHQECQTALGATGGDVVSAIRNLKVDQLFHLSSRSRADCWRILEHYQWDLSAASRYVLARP
Also: in the data inactive means no Kd found up to 30 µM.

Chain of Bone morphogenetic protein receptor type-1B (O00238 whole entry): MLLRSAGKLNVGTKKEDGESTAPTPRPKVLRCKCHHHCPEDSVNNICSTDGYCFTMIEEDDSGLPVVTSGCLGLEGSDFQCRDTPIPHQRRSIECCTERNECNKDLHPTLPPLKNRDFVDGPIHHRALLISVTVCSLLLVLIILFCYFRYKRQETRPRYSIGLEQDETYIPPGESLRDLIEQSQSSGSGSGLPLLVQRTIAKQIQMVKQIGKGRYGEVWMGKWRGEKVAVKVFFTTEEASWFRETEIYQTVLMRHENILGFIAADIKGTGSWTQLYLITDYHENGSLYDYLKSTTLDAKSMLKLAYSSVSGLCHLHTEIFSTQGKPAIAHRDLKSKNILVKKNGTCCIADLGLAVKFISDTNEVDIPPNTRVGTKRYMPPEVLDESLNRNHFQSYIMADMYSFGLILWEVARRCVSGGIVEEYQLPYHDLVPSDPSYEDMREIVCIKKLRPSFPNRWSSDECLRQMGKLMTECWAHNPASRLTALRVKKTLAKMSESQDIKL
Chain of Mitogen-activated protein kinase kinase kinase kinase 5 (Q9Y4K4 whole entry): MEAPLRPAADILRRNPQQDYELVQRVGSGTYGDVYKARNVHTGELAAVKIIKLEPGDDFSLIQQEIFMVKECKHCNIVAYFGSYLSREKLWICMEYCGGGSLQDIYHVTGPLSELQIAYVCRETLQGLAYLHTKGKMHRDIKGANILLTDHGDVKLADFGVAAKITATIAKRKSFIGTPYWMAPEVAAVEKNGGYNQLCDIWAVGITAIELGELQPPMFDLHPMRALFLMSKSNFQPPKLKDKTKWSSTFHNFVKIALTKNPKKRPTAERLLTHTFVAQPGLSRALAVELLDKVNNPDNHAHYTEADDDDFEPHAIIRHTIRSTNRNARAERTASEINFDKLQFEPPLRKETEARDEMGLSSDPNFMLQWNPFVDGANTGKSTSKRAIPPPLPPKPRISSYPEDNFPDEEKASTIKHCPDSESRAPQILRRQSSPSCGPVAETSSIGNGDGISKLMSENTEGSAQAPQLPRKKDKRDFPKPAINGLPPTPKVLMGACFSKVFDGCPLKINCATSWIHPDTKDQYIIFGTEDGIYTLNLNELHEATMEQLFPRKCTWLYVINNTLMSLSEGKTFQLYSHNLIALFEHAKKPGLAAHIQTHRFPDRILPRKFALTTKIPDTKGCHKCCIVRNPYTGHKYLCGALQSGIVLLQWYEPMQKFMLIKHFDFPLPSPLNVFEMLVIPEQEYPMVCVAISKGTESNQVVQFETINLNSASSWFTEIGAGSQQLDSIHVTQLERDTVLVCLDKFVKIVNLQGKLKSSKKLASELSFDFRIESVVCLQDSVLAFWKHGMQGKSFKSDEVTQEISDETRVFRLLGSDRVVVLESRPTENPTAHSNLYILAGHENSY

In general, Kd refers to a measure of binding affinity in units of concentration. As to `CNC(=O)c1cccc(-c2ccc3c(N4CCOC[C@@H]4C)nc(N4CCOC[C@@H]4C)nc3n2)c1` [VISTUSERTIB], the Kd in assay [1], in assay [2], in assay [3], in assay [4], in assay [5] and in assay [6] was > 30 µM (inactive) each time.

As for `COc1cc2nccc(Oc3ccc(NC(=O)C4(C(=O)Nc5ccc(F)cc5)CC4)cc3)c2cc1OC` [CABOZANTINIB], the Kd in assay [1], in assay [2], in assay [3], in assay [4], in assay [5] and in assay [6] was > 30 µM (inactive) in each case.

As for `Cc1cc(Nc2nc(N[C@@H](C)c3ncc(F)cn3)ncc2Cl)n[nH]1` [AZD-1480], the Kd is > 30 µM (inactive) in assay [1]; > 30 µM (inactive) in assay [2]; > 30 µM (inactive) in assay [3]; > 30 µM (inactive) in assay [4]; > 30 µM (inactive) in assay [5]; 1.26 µM (active) in assay [6].

Consider `O=C(Nc1ccc(OC(F)(F)F)cc1)c1sccc1NCc1ccnc2ccccc12` [OSI-930], for which the Kd in assay [1], in assay [2], in assay [3], in assay [4], in assay [5] and in assay [6] was > 30 µM (inactive) each time.

`C=CCN(/C=C1/C(=O)O[C@H](COC)[C@@]2(C)C1=C(O)C(=O)C1=C2[C@H](OC(C)=O)C[C@]2(C)C(=O)CC[C@@H]12)CC=C` [SONOLISIB]: the Kd in assay [1], in assay [2], in assay [3], in assay [4], in assay [5] and in assay [6] was > 30 µM (inactive) each time.

For the compound `COc1cccc2cc(-c3nc([C@H]4CC[C@H](C(=O)O)CC4)n4ncnc(N)c34)[nH]c12` [OSI-027], the Kd in assay [1], in assay [2], in assay [3], in assay [4], in assay [5] and in assay [6] was > 30 µM (inactive) throughout.

Turning to `O=c1[nH]c([C@@H]2CCCN2)nc2c1oc1ccc(Cl)cc12`, the Kd in assay [1] was > 30 µM (inactive); in assay [2] it was 0.04 µM; in assay [3] it was > 30 µM (inactive); in assay [4], > 30 µM (inactive); in assay [5], > 30 µM (inactive); in assay [6], > 30 µM (inactive).

Regarding `COc1ccc(-c2ccc3ncc4c(c3c2)n(-c2ccc(N3CCNCC3)c(C(F)(F)F)c2)c(=O)n4C)cn1` [BGT-226 FREE BASE], the Kd in assay [1] is > 30 µM (inactive); in assay [2] it was 0.922 µM (active); in assay [3], > 30 µM (inactive); in assay [4], > 30 µM (inactive); in assay [5] it was > 30 µM (inactive); in assay [6] it was > 30 µM (inactive).

`CNC(=O)c1ccc(Nc2ncc(C(F)(F)F)c(NCc3nccnc3N(C)S(C)(=O)=O)n2)cc1` [DEFACTINIB]: the Kd in assay [1] was > 30 µM (inactive); in assay [2], 9.12 µM (active); in assay [3], > 30 µM (inactive); in assay [4] it was > 30 µM (inactive); in assay [5], > 30 µM (inactive); in assay [6], 11.3 µM (active).

As for `Cc1c(Cn2c(C)nc3c(C(=O)O)cc(N4CCOCC4)cc32)cccc1C(F)(F)F` [GSK-2636771], the Kd in assay [1], in assay [2], in assay [3], in assay [4], in assay [5] and in assay [6] was > 30 µM (inactive) throughout.

Turning to `Cc1cc(C(=O)Nc2cc(Oc3ccc4nc(NC(=O)C5CC5)cn4n3)ccc2C)n(C)n1` [TAK-593], the Kd is > 30 µM (inactive) in assay [1]; > 30 µM (inactive) in assay [2]; > 30 µM (inactive) in assay [3]; > 30 µM (inactive) in assay [4]; 0.365 µM (active) in assay [5]; > 30 µM (inactive) in assay [6].

For the compound `Cn1cc(-c2[nH]c3cc(NC(=O)[C@H](N)C4CCCCC4)cc4c3c2C=NNC4=O)cn1`, the Kd is 2.01 µM (active) in assay [1]; > 30 µM (inactive) in assay [2]; > 30 µM (inactive) in assay [3]; 2.64 µM (active) in assay [4]; > 30 µM (inactive) in assay [5]; > 30 µM (inactive) in assay [6].

For the compound `C[C@@H]1COC(Nc2ccc3ncnc(Nc4ccc(OCc5nccs5)c(Cl)c4)c3c2)=N1` [VARLITINIB], the Kd in assay [1], in assay [2], in assay [3], in assay [4], in assay [5] and in assay [6] was > 30 µM (inactive) throughout.

Consider `CCc1cc2c(cc1N1CCC(N3CCOCC3)CC1)C(C)(C)c1[nH]c3cc(C#N)ccc3c1C2=O` [ALECTINIB], for which the Kd in assay [1], in assay [2], in assay [3], in assay [4], in assay [5] and in assay [6] was > 30 µM (inactive) each time.

As for `C#Cc1cccc(Nc2ncnc3cc4c(cc23)OCCOCCOCCO4)c1` [ICOTINIB], the Kd in assay [1], in assay [2], in assay [3], in assay [4], in assay [5] and in assay [6] was > 30 µM (inactive) each time.
